Experimental data reported in the NIST ThermoML archive (doi:10.1016/j.jct.2013.12.025).

Experiment: refractive index (Na D-line) (dimensionless); xn = mol fraction of the nth substance listed
Conditions: 101 kPa, Liquid, Standard Abbe refractometry

C=C[Si](C)(C)O[Si](C)(C)C=C [1,3-diethenyl-1,1,3,3-tetramethyldisiloxane] + CCc1ccccc1
refractive index
Conditions | 283.15 K | 288.15 K | 293.15 K | 298.15 K | 303.15 K
x1 = 0.0501 | 1.49399 | 1.49133 | 1.48864 | 1.48591 | 1.48318
x1 = 0.1001 | 1.48737 | 1.48473 | 1.48204 | 1.47931 | 1.4766
x1 = 0.1499 | 1.48124 | 1.47856 | 1.47587 | 1.47319 | 1.47044
x1 = 0.2001 | 1.47548 | 1.47282 | 1.47013 | 1.46745 | 1.46472
x1 = 0.25 | 1.47011 | 1.46746 | 1.46476 | 1.46206 | 1.45934
x1 = 0.3 | 1.46506 | 1.46243 | 1.45974 | 1.45705 | 1.45432
x1 = 0.3499 | 1.46032 | 1.45769 | 1.45502 | 1.45233 | 1.4496
x1 = 0.4 | 1.45589 | 1.45324 | 1.45057 | 1.44786 | 1.44516
x1 = 0.4501 | 1.45171 | 1.44905 | 1.44639 | 1.44368 | 1.44097
x1 = 0.5 | 1.44774 | 1.44509 | 1.44243 | 1.43975 | 1.43705
x1 = 0.5503 | 1.44396 | 1.44135 | 1.43866 | 1.43599 | 1.43331
x1 = 0.6 | 1.44044 | 1.43779 | 1.43514 | 1.43246 | 1.42979
x1 = 0.6501 | 1.43706 | 1.43444 | 1.43177 | 1.42909 | 1.42643
x1 = 0.6999 | 1.43392 | 1.43128 | 1.4286 | 1.42594 | 1.42325
x1 = 0.7502 | 1.43084 | 1.4282 | 1.42555 | 1.42288 | 1.42022
x1 = 0.8001 | 1.42794 | 1.42531 | 1.42264 | 1.41999 | 1.41732
x1 = 0.85 | 1.42518 | 1.42258 | 1.41991 | 1.41723 | 1.41458
x1 = 0.8999 | 1.42257 | 1.41995 | 1.41729 | 1.41464 | 1.41198
x1 = 0.9498 | 1.42013 | 1.41752 | 1.41486 | 1.41219 | 1.40954
x1 = 1 | 1.41762 | 1.41498 | 1.41232 | 1.40969 | 1.40704

C=C[Si](C)(C)O[Si](C)(C)C=C [1,3-diethenyl-1,1,3,3-tetramethyldisiloxane] + COc1ccccc1
refractive index
Conditions | 283.15 K | 288.15 K | 293.15 K | 298.15 K | 303.15 K
x1 = 0.0501 | 1.51284 | 1.51027 | 1.50766 | 1.50499 | 1.50234
x1 = 0.1 | 1.50406 | 1.5015 | 1.49885 | 1.49617 | 1.49356
x1 = 0.15 | 1.49596 | 1.49337 | 1.49073 | 1.48807 | 1.48543
x1 = 0.2004 | 1.48841 | 1.48578 | 1.48317 | 1.48051 | 1.47786
x1 = 0.2499 | 1.48153 | 1.47893 | 1.47631 | 1.47362 | 1.47098
x1 = 0.3 | 1.47505 | 1.47247 | 1.46982 | 1.46716 | 1.4645
x1 = 0.35 | 1.46908 | 1.46651 | 1.46384 | 1.46116 | 1.45851
x1 = 0.3997 | 1.46353 | 1.46092 | 1.45829 | 1.4556 | 1.45295
x1 = 0.4499 | 1.45831 | 1.45568 | 1.45303 | 1.45034 | 1.4477
x1 = 0.5001 | 1.45338 | 1.45077 | 1.44813 | 1.44544 | 1.44279
x1 = 0.5499 | 1.44883 | 1.4462 | 1.44358 | 1.44089 | 1.43823
x1 = 0.6 | 1.4445 | 1.44188 | 1.43925 | 1.43657 | 1.43393
x1 = 0.6499 | 1.44046 | 1.43782 | 1.43521 | 1.43252 | 1.42986
x1 = 0.6999 | 1.43664 | 1.43403 | 1.43139 | 1.4287 | 1.42604
x1 = 0.7499 | 1.43304 | 1.43043 | 1.42778 | 1.4251 | 1.42244
x1 = 0.8 | 1.42961 | 1.42699 | 1.42434 | 1.42166 | 1.41901
x1 = 0.8499 | 1.42639 | 1.42377 | 1.42112 | 1.41846 | 1.4158
x1 = 0.8998 | 1.42333 | 1.4207 | 1.41806 | 1.4154 | 1.41277
x1 = 0.9499 | 1.42042 | 1.41779 | 1.41515 | 1.41251 | 1.40987
x1 = 1 | 1.41766 | 1.415 | 1.41236 | 1.4097 | 1.40707

C=C[Si](C)(C)O[Si](C)(C)C=C [1,3-diethenyl-1,1,3,3-tetramethyldisiloxane] + Clc1ccccc1
refractive index
Conditions | 283.15 K | 288.15 K | 293.15 K | 298.15 K | 303.15 K
x1 = 0.05 | 1.51909 | 1.51642 | 1.51366 | 1.51088 | 1.50802
x1 = 0.0998 | 1.50933 | 1.5066 | 1.50385 | 1.50103 | 1.49821
x1 = 0.15 | 1.50029 | 1.49759 | 1.49487 | 1.492 | 1.48923
x1 = 0.1996 | 1.49216 | 1.48946 | 1.48671 | 1.48389 | 1.48103
x1 = 0.25 | 1.4846 | 1.48187 | 1.47913 | 1.47637 | 1.47349
x1 = 0.2999 | 1.47766 | 1.47495 | 1.47223 | 1.46943 | 1.46663
x1 = 0.35 | 1.47122 | 1.46854 | 1.46582 | 1.46303 | 1.46019
x1 = 0.3999 | 1.46527 | 1.46262 | 1.4599 | 1.45712 | 1.45432
x1 = 0.4496 | 1.45981 | 1.45712 | 1.45441 | 1.45167 | 1.44883
x1 = 0.4999 | 1.45464 | 1.45197 | 1.44926 | 1.4465 | 1.4437
x1 = 0.5499 | 1.44985 | 1.44716 | 1.44446 | 1.4417 | 1.43891
x1 = 0.6 | 1.44533 | 1.44268 | 1.43999 | 1.43722 | 1.43446
x1 = 0.6469 | 1.44138 | 1.4387 | 1.43603 | 1.43329 | 1.43053
x1 = 0.6998 | 1.43721 | 1.43455 | 1.43185 | 1.42911 | 1.42638
x1 = 0.7499 | 1.43345 | 1.4308 | 1.42812 | 1.42542 | 1.4227
x1 = 0.7997 | 1.42994 | 1.42729 | 1.42463 | 1.42193 | 1.41923
x1 = 0.8499 | 1.42661 | 1.42395 | 1.42129 | 1.41862 | 1.41593
x1 = 0.8996 | 1.4235 | 1.42083 | 1.41817 | 1.4155 | 1.41283
x1 = 0.9497 | 1.4205 | 1.41785 | 1.4152 | 1.41257 | 1.40991
x1 = 1 | 1.41767 | 1.415 | 1.41237 | 1.40973 | 1.40708

C=C[Si](C)(C)O[Si](C)(C)C=C [1,3-diethenyl-1,1,3,3-tetramethyldisiloxane] + Fc1ccccc1
refractive index
Conditions | 283.15 K | 288.15 K | 293.15 K | 298.15 K | 303.15 K
x1 = 0.05 | 1.46591 | 1.46302 | 1.4601 | 1.45724 | 1.45427
x1 = 0.1 | 1.46088 | 1.45799 | 1.4551 | 1.45222 | 1.44927
x1 = 0.15 | 1.45637 | 1.45349 | 1.45063 | 1.44775 | 1.44482
x1 = 0.1993 | 1.45237 | 1.44949 | 1.44664 | 1.44378 | 1.44083
x1 = 0.25 | 1.44858 | 1.44572 | 1.44288 | 1.44002 | 1.43708
x1 = 0.2999 | 1.44521 | 1.44238 | 1.43954 | 1.43671 | 1.43382
x1 = 0.35 | 1.44212 | 1.43928 | 1.43649 | 1.43366 | 1.43075
x1 = 0.4 | 1.43929 | 1.43648 | 1.43368 | 1.43086 | 1.42798
x1 = 0.45 | 1.43671 | 1.4339 | 1.43109 | 1.42829 | 1.42546
x1 = 0.5 | 1.43427 | 1.43147 | 1.42871 | 1.42592 | 1.42309
x1 = 0.5501 | 1.43205 | 1.42925 | 1.42651 | 1.42374 | 1.42092
x1 = 0.6 | 1.42996 | 1.42721 | 1.42446 | 1.42171 | 1.41891
x1 = 0.6501 | 1.42804 | 1.4253 | 1.42257 | 1.41982 | 1.41705
x1 = 0.7 | 1.42627 | 1.42353 | 1.4208 | 1.41808 | 1.41532
x1 = 0.7501 | 1.42458 | 1.42185 | 1.41913 | 1.41642 | 1.41369
x1 = 0.8 | 1.42302 | 1.42031 | 1.41762 | 1.41493 | 1.41219
x1 = 0.85 | 1.42152 | 1.41883 | 1.41615 | 1.41349 | 1.4108
x1 = 0.8998 | 1.42015 | 1.41747 | 1.4148 | 1.41213 | 1.40945
x1 = 0.95 | 1.41882 | 1.41617 | 1.41352 | 1.41087 | 1.40819
x1 = 1 | 1.41758 | 1.41493 | 1.41227 | 1.40963 | 1.40695
